# Measured values from US12565476B2, “2,5-disubstituted 3-methyl pyrazines and 2,5,6-trisubstituted 3-methyl pyrazines as allosteric SHP2 inhibitors” (Revolution Medicines, Inc., priority 2016, dated 2026).
# Target: SHP2 (Homo sapiens (Human), UniProt Q06124)
# Assay: SHP2 allosteric inhibition assay (DiFMUP prompt fluorescence)
# Type: biochemical
# Conditions: 0.2 nM SHP2 incubated with 0.5 μM Activating Peptide 1 or 2, surrogate substrate DiFMUP, compound 0.00005-10 μM
# Text: Without wishing to be bound by theory, SHP is allosterically activated through binding of bis-tyrosyl-phosphorylated peptides to its Src Homology 2 (SH2) domains. The latter activation step leads to the release of the auto-inhibitory interface of SHP2, which in turn renders the SHP2 protein tyrosine phosphatase (PTP) active and available for substrate recognition and reaction catalysis. The catalytic activity of SHP2 was monitored using the surrogate substrate DiFMUP in a prompt fluorescence assay format.
# After 30-60-minutes incubation at 25° C., the surrogate substrate DiFMUP (Invitrogen, Cat #D6567) was added to the reaction and activity was determined by a kinetic read using a microplate reader (Envision, Perkin-Elmer or Spectramax M5, Molecular Devices). The excitation and emission wavelengths were 340 nm and 450 nm, respectively. Initial rates were determined from a linear fit of the data, and the inhibitor dose response curves were analyzed using normalized IC50 regression curve fitting with control based normalization.
# Chain of SHP2 (Q06124 whole entry): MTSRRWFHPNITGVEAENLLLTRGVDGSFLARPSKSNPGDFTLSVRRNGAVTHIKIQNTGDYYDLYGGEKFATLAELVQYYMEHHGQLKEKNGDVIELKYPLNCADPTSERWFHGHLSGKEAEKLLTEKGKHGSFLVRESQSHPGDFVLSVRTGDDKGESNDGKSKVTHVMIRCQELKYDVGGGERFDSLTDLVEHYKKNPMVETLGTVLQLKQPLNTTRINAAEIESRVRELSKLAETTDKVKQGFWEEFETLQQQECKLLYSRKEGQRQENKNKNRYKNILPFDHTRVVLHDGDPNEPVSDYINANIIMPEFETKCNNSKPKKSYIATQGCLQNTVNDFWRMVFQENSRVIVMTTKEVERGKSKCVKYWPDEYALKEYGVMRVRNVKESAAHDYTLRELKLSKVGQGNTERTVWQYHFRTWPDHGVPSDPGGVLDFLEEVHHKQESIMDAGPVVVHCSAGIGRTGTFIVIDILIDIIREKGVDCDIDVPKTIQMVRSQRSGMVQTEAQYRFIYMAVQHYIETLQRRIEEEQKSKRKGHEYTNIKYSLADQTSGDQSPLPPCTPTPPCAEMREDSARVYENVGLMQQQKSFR
row,Compound,IC50 [nM]
1,"Cc1nc(N2CCC3(CCC[C@H]3N)CC2)cnc1Sc1cccc(Cl)c1Cl [Example 1, (R)-8-(5-((2,3-dichlorophenyl)thio)-6-methylpyrazin-2-yl)-8-azaspiro[4.5]decan-1-amine]",83
2,"Cc1nc(N2CCC3(CCC[C@H]3N)CC2)cnc1-c1cccc(Cl)c1Cl [Example 23, (R)-8-(5-(2,3-dichlorophenyl)-6-methylpyrazin-2-yl)-8-azaspiro[4.5]decan-1-amine]",43
3,"Cc1nc(N2CCC(C)(N)CC2)cnc1-c1cccc(Cl)c1Cl [Example 24, 1-(5-(2,3-dichlorophenyl)-6-methylpyrazin-2-yl)-4-methylpiperidin-4-amine]",104
